Reference: the supplement of paper PMC10307832

Tests used:
Assay in all cases: relative viability (nuclei count vs DMSO), 5 days (fraction); higher = more cells survive
NCI-H838 = tested on: NCI-H838
How it was run: (§1)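 Nuclei were stained with Hoechst during a one-step fixation (final 0.05% Triton X-100, 1% formaldehyde, 1 ug/ml Hoechst) carried out 5 days after dosing, then counted on 4× images. The cells, lung cancer lines in 1536-well plates, had been dosed by pin tool the day after seeding with one drug alone or a fixed anchor-drug dose plus five library-drug doses (not always all listed) in √10 steps. Relative viability is the nuclei count in treated wells divided by that in vehicle wells, and each value is the median of duplicate plates.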

NCI-H2087 = tested on: NCI-H2087
How it was run: as §1

NCI-H1993 = tested on: NCI-H1993
How it was run: as §1

NCI-H2023 = tested on: NCI-H2023
How it was run: as §1

EMC-BAC-2 = tested on: EMC-BAC-2
How it was run: as §1

NCI-H1395 = tested on: NCI-H1395
How it was run: as §1

NCI-H3122 = tested on: NCI-H3122
How it was run: as §1

BEN = tested on: BEN
How it was run: as §1

NCI-H2126 = tested on: NCI-H2126
How it was run: as §1

NCI-H596 = tested on: NCI-H596
How it was run: as §1

LOU-NH91 = tested on: LOU-NH91
How it was run: as §1

201T = tested on: 201T
How it was run: as §1

LCLC-103H = tested on: LCLC-103H
How it was run: as §1

HARA = tested on: HARA
How it was run: as §1

NCI-H522 = tested on: NCI-H522
How it was run: as §1

HCC-44 = tested on: HCC-44
How it was run: as §1

NCI-H441 = tested on: NCI-H441
How it was run: as §1

NCI-H23 = tested on: NCI-H23
How it was run: as §1

NCI-H650 = tested on: NCI-H650
How it was run: as §1

NCI-H647 = tested on: NCI-H647
How it was run: as §1

NCI-H727 = tested on: NCI-H727
How it was run: as §1

NCI-H2347 = tested on: NCI-H2347
How it was run: as §1

`O=c1cc(-c2cccc3c2Sc2ccccc2S3)oc(N2CCOCC2)c1` + CCNC(=O)c1noc(-c2cc(C(C)C)c(O)cc2O)c1-c1ccc(CN2CCOCC2)cc1 [Luminespib] (partner 0.01 µM) gave a relative viability (NCI-H838; first compound 0.08 µM) of 0.277, a relative viability (NCI-H838; first compound 0.253 µM) of 0.264 and a relative viability (NCI-H838; first compound 0.8 µM) of 0.371. The relative viability (NCI-H838; first compound 2.53 µM) was 0.313, the relative viability (NCI-H838; first compound 8 µM) was 0.23 and the relative viability (NCI-H2087; first compound 0.08 µM) was 0.2. The relative viability (NCI-H2087; first compound 0.253 µM) was 0.163, the relative viability (NCI-H2087; first compound 0.8 µM) was 0.155 and the relative viability (NCI-H2087; first compound 2.53 µM) was 0.163. The relative viability (NCI-H2087; first compound 8 µM) was 0.2, the relative viability (NCI-H1993; first compound 0.08 µM) was 0.628 and the relative viability (NCI-H1993; first compound 0.253 µM) was 0.934. It also gave a relative viability (NCI-H1993; first compound 0.8 µM) of 0.778, a relative viability (NCI-H1993; first compound 2.53 µM) of 0.724 and a relative viability (NCI-H1993; first compound 8 µM) of 0.9. It also gave a relative viability (NCI-H2023; first compound 0.08 µM) of 0.58, a relative viability (NCI-H2023; first compound 0.253 µM) of 0.949 and a relative viability (NCI-H2023; first compound 0.8 µM) of 0.601. For the same compound, the relative viability (NCI-H2023; first compound 2.53 µM) was 0.856, the relative viability (NCI-H2023; first compound 8 µM) was 0.499 and the relative viability (EMC-BAC-2; first compound 0.08 µM) was 1.16. It also gave a relative viability (EMC-BAC-2; first compound 0.253 µM) of 1.31, a relative viability (EMC-BAC-2; first compound 0.8 µM) of 1.13 and a relative viability (EMC-BAC-2; first compound 2.53 µM) of 1.18. The relative viability (EMC-BAC-2; first compound 8 µM) was 1.27, the relative viability (NCI-H1395; first compound 0.08 µM) was 0.632 and the relative viability (NCI-H1395; first compound 0.253 µM) was 0.712. The relative viability (NCI-H1395; first compound 0.8 µM) was 0.658, the relative viability (NCI-H1395; first compound 2.53 µM) was 0.63 and the relative viability (NCI-H1395; first compound 8 µM) was 0.661. It also gave a relative viability (NCI-H3122; first compound 0.08 µM) of 0.109, a relative viability (NCI-H3122; first compound 0.253 µM) of 0.102 and a relative viability (NCI-H3122; first compound 0.8 µM) of 0.111. It also gave a relative viability (NCI-H3122; first compound 2.53 µM) of 0.0685, a relative viability (NCI-H3122; first compound 8 µM) of 0.106 and a relative viability (BEN; first compound 0.08 µM) of 0.223. For the same compound, the relative viability (BEN; first compound 0.253 µM) was 0.435, the relative viability (BEN; first compound 0.8 µM) was 0.294 and the relative viability (BEN; first compound 2.53 µM) was 0.271. The relative viability (BEN; first compound 8 µM) was 0.387, the relative viability (NCI-H2126; first compound 0.08 µM) was 0.791 and the relative viability (NCI-H2126; first compound 0.253 µM) was 1. The relative viability (NCI-H2126; first compound 0.8 µM) was 0.963, the relative viability (NCI-H2126; first compound 2.53 µM) was 0.822 and the relative viability (NCI-H2126; first compound 8 µM) was 0.836. The relative viability (NCI-H596; first compound 0.08 µM) was 1.06, the relative viability (NCI-H596; first compound 0.253 µM) was 0.957 and the relative viability (NCI-H596; first compound 0.8 µM) was 0.763. It also gave a relative viability (NCI-H596; first compound 2.53 µM) of 0.891, a relative viability (NCI-H596; first compound 8 µM) of 0.852 and a relative viability (LOU-NH91; first compound 0.08 µM) of 0.327. The relative viability (LOU-NH91; first compound 0.253 µM) was 0.43, the relative viability (LOU-NH91; first compound 0.8 µM) was 0.339 and the relative viability (LOU-NH91; first compound 2.53 µM) was 0.354. It also gave a relative viability (LOU-NH91; first compound 8 µM) of 0.357, a relative viability (201T; first compound 0.08 µM) of 1.02 and a relative viability (201T; first compound 0.253 µM) of 1.05. The relative viability (201T; first compound 0.8 µM) was 1.16, the relative viability (201T; first compound 2.53 µM) was 0.99 and the relative viability (201T; first compound 8 µM) was 0.969. It also gave a relative viability (LCLC-103H; first compound 0.08 µM) of 0.878, a relative viability (LCLC-103H; first compound 0.253 µM) of 1.17 and a relative viability (LCLC-103H; first compound 0.8 µM) of 1.05. It also gave a relative viability (LCLC-103H; first compound 2.53 µM) of 0.959, a relative viability (LCLC-103H; first compound 8 µM) of 0.792 and a relative viability (HARA; first compound 0.08 µM) of 0.708. It also gave a relative viability (HARA; first compound 0.253 µM) of 0.808, a relative viability (HARA; first compound 0.8 µM) of 0.822 and a relative viability (HARA; first compound 2.53 µM) of 0.576. It also gave a relative viability (HARA; first compound 8 µM) of 0.834, a relative viability (NCI-H522; first compound 0.08 µM) of 0.999 and a relative viability (NCI-H522; first compound 0.253 µM) of 1.03. It also gave a relative viability (NCI-H522; first compound 0.8 µM) of 1.21, a relative viability (NCI-H522; first compound 2.53 µM) of 1.13 and a relative viability (NCI-H522; first compound 8 µM) of 1.08. The relative viability (HCC-44; first compound 0.08 µM) was 1.17, the relative viability (HCC-44; first compound 0.253 µM) was 0.971 and the relative viability (HCC-44; first compound 2.53 µM) was 0.993. The relative viability (HCC-44; first compound 8 µM) was 1.04, the relative viability (NCI-H441; first compound 0.08 µM) was 0.331 and the relative viability (NCI-H441; first compound 0.253 µM) was 0.314. The relative viability (NCI-H441; first compound 0.8 µM) was 0.35, the relative viability (NCI-H441; first compound 2.53 µM) was 0.407 and the relative viability (NCI-H441; first compound 8 µM) was 0.281. The relative viability (NCI-H23; first compound 0.08 µM) was 0.195, the relative viability (NCI-H23; first compound 0.253 µM) was 0.228 and the relative viability (NCI-H23; first compound 0.8 µM) was 0.188. It also gave a relative viability (NCI-H23; first compound 2.53 µM) of 0.219, a relative viability (NCI-H23; first compound 8 µM) of 0.209 and a relative viability (NCI-H650; first compound 0.08 µM) of 0.711. It also gave a relative viability (NCI-H650; first compound 0.253 µM) of 0.756, a relative viability (NCI-H650; first compound 0.8 µM) of 0.873 and a relative viability (NCI-H650; first compound 8 µM) of 0.813. It also gave a relative viability (NCI-H647; first compound 0.08 µM) of 0.123, a relative viability (NCI-H647; first compound 0.253 µM) of 0.138 and a relative viability (NCI-H647; first compound 0.8 µM) of 0.259. For the same compound, the relative viability (NCI-H647; first compound 2.53 µM) was 0.183, the relative viability (NCI-H647; first compound 8 µM) was 0.161 and the relative viability (NCI-H727; first compound 0.08 µM) was 0.289. It also gave a relative viability (NCI-H727; first compound 0.253 µM) of 0.449, a relative viability (NCI-H727; first compound 0.8 µM) of 0.307 and a relative viability (NCI-H727; first compound 2.53 µM) of 0.536. It also gave a relative viability (NCI-H727; first compound 8 µM) of 0.382, a relative viability (NCI-H2347; first compound 0.08 µM) of 0.529 and a relative viability (NCI-H2347; first compound 0.253 µM) of 0.358. For the same compound, the relative viability (NCI-H2347; first compound 0.8 µM) was 0.284, the relative viability (NCI-H2347; first compound 2.53 µM) was 0.461 and the relative viability (NCI-H2347; first compound 8 µM) was 0.391.
